The nature of experiment [1]: Laser Doppler circulation in five human subjects, NO creams and controls (Example 8). The class given is in vivo. Particulars: positive control formulation containing 0.1% methyl nicotinate. From the text:
This example illustrates delivery of nitric oxide formulations to five human subjects, using procedures and formulations similar to those discussed in Example 5. Each person served as their own control for the testing. A Moor Instruments Laser Doppler was used to determine circulation. […] The formulations used produce positive, almost immediate results when applied to the skin which, in these studies, was manifested by vasodilatation of the cutaneous vascular system.
For each subject, the following creams were applied: a negative control formulation (containing no NO), 0.010 gram of a 10,000 ppm NO formulation, 0.020 gram of a 10,000 ppm NO formulation, and a positive control formulation containing 0.1% methyl nicotinate. The formulations were prepared using procedures similar to those discussed in Example 1.

A short description of experiment [2]: Laser Doppler capillary blood flow in humans, 10,000 ppm NO in closed Hilltop chamber (Example 5). The class given is in vivo, human. Particulars: applied to the skin at 1/10% in alcohol. The source says:
The formulation used in these studies contained nitric oxide dispersed in a lipid matrix. […] Nitric oxide is a very rapid acting molecule, and these studies used a system that employed laser Doppler with a covered chamber. The formulation was placed into the chamber and then attached to the skin by an adhesive layer on the covering. This provided a stable measuring device as determined by multiple normal evaluations of the capillary blood flow without treatment of nitric oxide.
A known positive control, methyl nicotinate, was applied to the skin at a concentration of 1/10% in alcohol. […] The vascular dynamics are such that when the blood vessels dilate physical parameters follow Bernoulli's law. This states that as one increases the diameter of a tube containing a liquid to flow will increase but the pressure and the speed of the liquid will decrease. The laser Doppler device accurately measured these parameters.
The test product was labeled as 10,000 ppm NO (nitric oxide). The study participants had 100 mg of the test product applied in a closed Hilltop chamber on the forearm. […]
A Moor Instruments DRT4 Laser Doppler Blood Flow Monitor (Devon, England) was used in these studies. The laser Doppler technique measured blood flow in the microcapillaries of the skin that are close to the skin surface and the blood flow in underlying arterioles and venules that help to regulate skin temperature. […]

As for `COC(=O)c1cccnc1` [methyl nicotinate], the “Vasodilatation (laser Doppler)” value in experiment [1] is “vasodilatation was observed”. In addition, the “Laser Doppler response of positive control” value in experiment [2] is “rapid response typical of the vasodilator”.
